# Experimental data from ChEMBL document CHEMBL4402557, “Nidufexor (LMB763), a Novel FXR Modulator for the Treatment of Nonalcoholic Steatohepatitis” (J Med Chem, 2020).
# Calls of active or inactive are those of the source. No cut-off for these calls is given here.
# Experiments:
# Bile acid receptor [1] = biological target: T1, Bile acid receptor (Homo sapiens, UniProt Q96RI1); test: Agonist activity at FXR transfected in human HEK293T cells o-expressing pGL3/hBSEP/luc incubated for 24 hrs by Steady-Glo reagent based luciferase reporter gene assay; type: cell-based
# T1 sequence (Q96RI1 whole entry): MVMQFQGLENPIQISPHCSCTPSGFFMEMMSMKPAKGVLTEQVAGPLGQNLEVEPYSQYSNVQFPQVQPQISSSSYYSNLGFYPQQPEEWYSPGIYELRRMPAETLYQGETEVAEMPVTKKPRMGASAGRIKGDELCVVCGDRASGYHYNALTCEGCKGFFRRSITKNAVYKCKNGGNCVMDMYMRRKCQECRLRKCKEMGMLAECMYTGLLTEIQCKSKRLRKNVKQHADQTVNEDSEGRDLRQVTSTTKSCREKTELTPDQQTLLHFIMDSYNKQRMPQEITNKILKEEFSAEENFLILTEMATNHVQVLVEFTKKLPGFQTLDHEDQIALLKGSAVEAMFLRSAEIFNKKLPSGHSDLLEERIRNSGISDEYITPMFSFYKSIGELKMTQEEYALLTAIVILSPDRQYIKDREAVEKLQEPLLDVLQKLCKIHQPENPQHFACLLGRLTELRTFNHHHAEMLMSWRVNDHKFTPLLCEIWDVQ
# Bile acid receptor [2] = biological target: T1, Bile acid receptor; test: Agonist activity at GST-tagged human FXR-LBD (193 to 472 residues) using biotinylated SRC-1 peptide as substrate incubated for 1 hrs by HTRF assay
# [3] = Solubility of compound in pH 6.5 FASSIF at 2 mg measured for 5 to 60 mins by UV spectroscopic method; type: physicochemical
# [4] = Volume of distribution at steady state in Wistar rat at 3 mg/kg, iv; type: ADME, organism-based; details: in vivo, read-out: Vdss
# [5] = Half life in Wistar rat at 3 mg/kg, iv; type: ADME, organism-based; details: in vivo
# [6] = Oral bioavailability in Wistar rat at 10 mg/kg in presence of TRIS salt; type: ADME, organism-based; details: in vivo
# [7] = Oral bioavailability in Wistar rat at 100 mg/kg in presence of TRIS salt; type: ADME, organism-based; details: in vivo
# [8] = Clearance in Wistar rat at 3 mg/kg, iv; type: ADME, organism-based; details: in vivo
# [9] = Permeability of the compound by PAMPA; type: ADME
# [10] = Oral bioavailability in Wistar rat at 10 mg/kg in presence of PEG 300/D5W(3:1); type: ADME, organism-based; details: in vivo
# [11] = Oral bioavailability in Wistar rat at 10 mg/kg in presence of 0.5% CMC/0.5% Tween 80; type: ADME, organism-based; details: in vivo
# [12] = Lipophilicity, logD of compound at pH 6.8; type: physicochemical; details: buffer
# Mus musculus = test: Anti Steato-hepatitic activity in STZ/HFD induced C57BL/6J mouse STAM model assessed as reduction in NAS at 25 mg/kg, po administered via oral gavage once daily for 3 weeks and measured on 9 week by H and E staining based assay; type: functional, organism-based
compound,measurement,setting,value
CC(=O)NCCN(C(=O)c1nn(C)c2c1COc1ccc(Cl)cc1-2)C(C)c1ccccc1 (racemic),EC50,Bile acid receptor [1],> 10 µM
same,EC50,Bile acid receptor [2],> 10 µM
CC(=O)NCCN(Cc1ccccc1)C(=O)c1nn(C)c2c1COc1ccccc1-2,solubility,[3],> 175 µM
Cn1nc(C(=O)N(CC(=O)Nc2cc(C(=O)O)ccc2F)Cc2cccc(F)c2)c2c1-c1cc(F)ccc1OC2,Vd,[4],1.6 L/kg
same,half-life,[5],3.6 h
same,bioavailability,[6],56%
same,bioavailability,[7],28%
same,clearance,[8],9.6 mL/min/kg
same,permeability,[9],86%
same,bioavailability,[10],36%
same,bioavailability,[11],5%
same,solubility,[3],46 µM
CC(=O)NCCN(Cc1ccccc1)C(=O)c1nn(C)c2c1COc1ccc(Br)cc1-2,solubility,[3],73 µM
CC(=O)NCCN(Cc1ccccc1F)C(=O)c1nn(C)c2c1COc1ccc(Br)cc1-2,solubility,[3],< 2 µM
O=C(O)c1cc(F)c2nc(N3[C@@H]4CC[C@H]3C[C@@H](OCc3c(-c5ccccc5OC(F)(F)F)noc3C3CC3)C4)sc2c1 [TROPIFEXOR],logD,[12],3.2
same,solubility,[3],110 µM
Cn1nc(C(=O)N(CCNc2cc(C(=O)O)ccc2F)Cc2cccc(F)c2)c2c1-c1cc(F)ccc1OC2,Vd,[4],1.43 L/kg
same,half-life,[5],1.97 h
same,bioavailability,[6],15%
same,bioavailability,[7],12%
same,clearance,[8],19.9 mL/min/kg
same,permeability,[9],96%
same,bioavailability,[10],22%
same,bioavailability,[11],17%
same,solubility,[3],> 175 µM
CC(=O)NCCN(Cc1ccc(F)cc1)C(=O)c1nn(C)c2c1COc1ccc(Br)cc1-2,solubility,[3],41 µM
CC(=O)NCCN(Cc1ccccc1)C(=O)c1nn(C)c2c1COc1ccc(I)cc1-2,solubility,[3],3 µM
CC(=O)NCCNC(=O)c1nn(C)c2c1COc1ccccc1-2,EC50,Bile acid receptor [2],> 10 µM
CC[C@H]1[C@@H](O)[C@@H]2[C@H](CC[C@]3(C)[C@@H]([C@H](C)CCC(=O)O)CC[C@@H]23)[C@@]2(C)CC[C@@H](O)C[C@@H]12,Activity,Mus musculus,inactive
CC(=O)NCCN(Cc1cccc(F)c1)C(=O)c1nn(C)c2c1COc1ccc(Br)cc1-2,solubility,[3],80 µM
CC(=O)NCCN(Cc1ccccc1)C(=O)c1nn(C(C)C)c2c1COc1ccc(Br)cc1-2,EC50,Bile acid receptor [1],2.7 µM
same,EC50,Bile acid receptor [2],6 µM
CC(=O)NCCN(Cc1ccccc1)C(=O)c1c2c(nn1C)-c1cc(Br)ccc1OC2,EC50,Bile acid receptor [1],> 20 µM
same,EC50,Bile acid receptor [2],6 µM
CC(=O)NCCN(Cc1ccccc1)C(=O)c1nn(C)c2c1COc1ccc(Cl)cc1-2,solubility,[3],> 175 µM
CC(=O)NCCN(Cc1ccccc1)C(=O)c1n[nH]c2c1COc1ccc(Br)cc1-2,EC50,Bile acid receptor [1],11 µM
same,EC50,Bile acid receptor [2],> 10 µM
CC(=O)NCCN(Cc1ccccn1)C(=O)c1nn(C)c2c1COc1ccc(Br)cc1-2,solubility,[3],< 2 µM
CC(=O)NCCN(Cc1ccccc1)C(=O)c1nn(C)c2c1COc1ccc(C3CC3)cc1-2,solubility,[3],9 µM
CC(=O)NCCN(C)C(=O)c1nn(C)c2c1COc1ccccc1-2,EC50,Bile acid receptor [2],> 10 µM
